Data as given in PMC12123601, “Light-Induced, Lysine-Targeting Irreversible Covalent Inhibition of the Human Oxygen Sensing Hydroxylase Factor Inhibiting HIF (FIH)” (Journal of the American Chemical Society, 2025).

What was measured:
FIH = FIH (Homo sapiens, UniProt Q9NWT6); assay: O-phenylenediamine (OPD) 2OG derivatization turnover assay (remaining 2OG in FIH hydroxylation system); assay type: biochemical; set-up: Concentration of remaining 2OG: unit: µM
Method: To explore whether the covalent inhibitor can effectively and sustainably prevent the hydroxylation process catalyzed by FIH, the inhibitory activities against FIH were evaluated using the fluorescent O-phenylenediamine (OPD) 2OG derivatization turnover assay (Figure S9).
Figure S9. Schematic of the O-phenylenediamine (OPD) fluorescent derivative assay6. The assay monitors depletion of 2OG.
(1 picture or pasted object on this page, not shown here) […]
pET28a vectors encoding for full-length FIH with an N-terminal His6 tag or for FIH (K106A) with an N-terminal His6 tag were purchased from Nanjing Zoonbio Biotechnology. Both the FIHWT and FIHK106A protein were expressed from the respective plasmid in Escherichia coli BL21 at 20 °C for 16 h. E. coli cells were lysed and the lysate were clarified by centrifugation. His6-tagged FIHWT or FIHK106A was purified on a HisTrap affinity column (GE Healthcare) by elution with an imidazole gradient. The final purified proteins were stored in PBS buffer. […]
Ki = I50 / [1 + ([L]50 + [P]0)/Kd] […]
3.2 O-Phenylenediamine (OPD) fluorescent derivative assay
Assays were carried out by mixing 1 mM DTT, 0.6 mg/mL of catalase, 200 μM 2-OG, 50 mM Hepes, 200 μM HIF-1α (788-807), and inhibitors at pH 7.0 to a final volume of 44 μL and incubated at 37 °C for 5 min. At the same time, FIH enzyme and iron (prepared as 200 mM stock in 20 mM HCl and diluted with water) were mixed at room temperature for 3 min. […] The reaction was stopped by the addition of 100 μL of 0.5 M HCl. After adding 50 μL of 10 mg/mL OPD in 0.5 M HCl and heating at 95 °C for 10 min, the derivatization was achieved. Then, 50 μL of the mixture centrifugated for 5 min was made basic by adding 30 μL of 1.25 M NaOH, and then fluorescence was detected by SPARK Multi-Mode Microplate Reader (Tecan). […]
Crystals were cryo -protected using mother liquor supplemented with 25%v/v glycerol before manual loop cryo -cooling in liquid N2.
Data for ligand -bound protein complexes were from single crystals at 100 K using Diamond Light Source (UK) beamlines. The FIH crystal structures were determined by molecular replacement (MR) using the AutoMR (PHASER) subroutine in PHENIX (version 1.18.2) based on the PDB ID: 1H2K crystal structure .

[1] = system: EGLN3 mRNA level in Hep3B cells; assay: qRT-PCR of FIH-dependent HIF target gene EGLN3 in Hep3B cells; assay type: cell-based
Method: 5 […] sustainably engages with FIH and regulates the expression of FIH-dependent HIF target gene EGLN3 in Hep3B cells. (A) The CETSA assay was carried out with Hep3B cells grown in the presence of NBA-ZG-2291 (50 μM) for 12–48 h after 30 min of light activation (365 nm, 16 W). The intensity of the bands for grayscale analysis was referenced to the starting temperature (37 °C). α-Actinin was the sample loading control. n = 2; mean ± SD. […] (E) Correlation heatmap of the NBA-ZG-2291-treated group and the siFIH group by RNA-sequencing analysis. […] The relative fold change with respect to DMSO treated sample is shown (with normalization to HPRT gene levels). Mean ± SEM; n = 3. (G) TG level of NBA-ZG-2291-treated 3T3-L1-derived adipocytes. Mean ± SEM; n = 3. (H) Representative Oil Red O-stained images of the control, ZG-2291-treated, and NBA-ZG-2291-treated 3T3-L1-derived adipocytes. Scale Bar, 30 μm. P values were analyzed by two-way ANOVA comparing with the vehicle/control group (*, P < 0.05; **, P < 0.01; ***, P < 0.001, ****, P < 0.0001). See Methods (Quantitative PCR Analysis of Gene Expression) for assay details. TEXT PRINTED IN THE PICTURE: (A) no label printed: FIH: ΔTm (°C): 8.87 (Incubation time: 12 h); FIH: ΔTm (°C): 9.28 (Incubation time: 24 h); FIH: ΔTm (°C): 8.86 (Incubation time: 48 h); α-actinin: ΔTm (°C): 0.30 (Incubation time: 12 h); α-actinin: ΔTm (°C): -0.03 (Incubation time: 24 h); α-actinin: ΔTm (°C): -0.45 (Incubation time: 48 h) DOUBTS OF THE COPYIST ABOUT THIS PICTURE: Panel A: the picture prints no substance label with the ΔTm tables, so the label is left empty
The Egl-9 family hypoxia-inducible factor 3 gene (EGLN3, PHD3) is a HIF target gene, expression of which is negatively regulated by FIH catalysis, , potentially in a context-dependent manner. We therefore investigated the effect of the light-induced covalent inhibitor NBA-ZG-2291 on EGLN3 expression levels in Hep3B cells using ZG-2291 as a positive inhibition control. […] At a concentration of 10 μM, NBA-ZG-2291 increased EGLN3 expression by ∼2.5-fold with irradiation.
We also compared the time-dependent regulation of NBA-ZG-2291 on the HIF pathway with that of ZG-2291. […] This may result from the limited action time of the reversible inhibitor, perhaps due to its metabolism. The overall results provide strong evidence that the light-induced, lysine-targeting irreversible covalent inhibitor NBA-ZG-2291 can effectively and sustainably engage FIH, leading to the upregulation of FIH-dependent HIF target gene expression.

Chain of FIH (Q9NWT6 whole entry): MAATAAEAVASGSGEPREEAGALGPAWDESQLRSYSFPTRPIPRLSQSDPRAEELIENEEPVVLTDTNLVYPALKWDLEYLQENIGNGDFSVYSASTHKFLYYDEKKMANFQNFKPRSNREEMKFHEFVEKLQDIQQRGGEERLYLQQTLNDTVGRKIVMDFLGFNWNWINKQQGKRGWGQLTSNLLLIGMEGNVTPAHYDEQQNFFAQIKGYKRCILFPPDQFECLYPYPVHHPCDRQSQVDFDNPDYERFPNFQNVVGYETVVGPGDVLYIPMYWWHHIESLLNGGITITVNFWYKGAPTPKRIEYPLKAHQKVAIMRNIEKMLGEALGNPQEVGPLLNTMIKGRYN

Concentration of remaining 2OG (FIH; inhibitor 0.14 μM, incubation 0 min, 200 μM 2-OG at start): 200.0 | Concentration of remaining 2OG (FIH; inhibitor 0.14 μM, incubation 15 min): 182.9 | Concentration of remaining 2OG (FIH; inhibitor 0.14 μM, incubation 30 min): 173.3 | Concentration of remaining 2OG (FIH; inhibitor 0.14 μM, incubation 1 h): 163.0 | Concentration of remaining 2OG (FIH; inhibitor 0.14 μM, incubation 4 h): 140.5 | Concentration of remaining 2OG (FIH; inhibitor 0.41 μM, incubation 0 min, 200 μM 2-OG at start): 200.0 | Concentration of remaining 2OG (FIH; inhibitor 0.41 μM, incubation 15 min): 184.2 | Concentration of remaining 2OG (FIH; inhibitor 0.41 μM, incubation 30 min): 176.4 | Concentration of remaining 2OG (FIH; inhibitor 0.41 μM, incubation 1 h): 162.3 | Concentration of remaining 2OG (FIH; inhibitor 0.41 μM, incubation 4 h): 153.7 | Concentration of remaining 2OG (FIH; inhibitor 1.23 μM, incubation 0 min, 200 μM 2-OG at start): 200.0 | Concentration of remaining 2OG (FIH; inhibitor 1.23 μM, incubation 15 min): 190.8 | Concentration of remaining 2OG (FIH; inhibitor 1.23 μM, incubation 30 min): 184.4 | Concentration of remaining 2OG (FIH; inhibitor 1.23 μM, incubation 1 h): 172.8 | Concentration of remaining 2OG (FIH; inhibitor 1.23 μM, incubation 4 h): 159.4 | Concentration of remaining 2OG (FIH; inhibitor 3.70 μM, incubation 0 min, 200 μM 2-OG at start): 200.0 | Concentration of remaining 2OG (FIH; inhibitor 3.70 μM, incubation 15 min): 192.8 | Concentration of remaining 2OG (FIH; inhibitor 3.70 μM, incubation 30 min): 190.8 | Concentration of remaining 2OG (FIH; inhibitor 3.70 μM, incubation 1 h): 181.0 | Concentration of remaining 2OG (FIH; inhibitor 3.70 μM, incubation 4 h): 167.9 | Concentration of remaining 2OG (FIH; inhibitor 11.1 μM, incubation 0 min, 200 μM 2-OG at start): 200.0 | Concentration of remaining 2OG (FIH; inhibitor 11.1 μM, incubation 15 min): 195.1 | Concentration of remaining 2OG (FIH; inhibitor 11.1 μM, incubation 30 min): 194.6 | Concentration of remaining 2OG (FIH; inhibitor 11.1 μM, incubation 1 h): 184.1 | Concentration of remaining 2OG (FIH; inhibitor 11.1 μM, incubation 4 h): 175.9 | Concentration of remaining 2OG (FIH; inhibitor 33.3 μM, incubation 0 min, 200 μM 2-OG at start): 200.0 | Concentration of remaining 2OG (FIH; inhibitor 33.3 μM, incubation 15 min): 195.6 | Concentration of remaining 2OG (FIH; inhibitor 33.3 μM, incubation 30 min): 195.3 | Concentration of remaining 2OG (FIH; inhibitor 33.3 μM, incubation 1 h): 189.4 | Concentration of remaining 2OG (FIH; inhibitor 33.3 μM, incubation 4 h): 181.4 | Concentration of remaining 2OG (FIH; inhibitor 100 μM, incubation 0 min, 200 μM 2-OG at start): 200.0 | Concentration of remaining 2OG (FIH; inhibitor 100 μM, incubation 15 min): 199.4 | Concentration of remaining 2OG (FIH; inhibitor 100 μM, incubation 30 min): 197.3 | Concentration of remaining 2OG (FIH; inhibitor 100 μM, incubation 1 h): 193.2 | Concentration of remaining 2OG (FIH; inhibitor 100 μM, incubation 4 h): 186.6 | Concentration of remaining 2OG (FIH; inhibitor 300 μM, incubation 0 min, 200 μM 2-OG at start): 200.0 | Concentration of remaining 2OG (FIH; inhibitor 300 μM, incubation 15 min): 200.0 | Concentration of remaining 2OG (FIH; inhibitor 300 μM, incubation 30 min): 199.1 | Concentration of remaining 2OG (FIH; inhibitor 300 μM, incubation 1 h): 196.6 | Concentration of remaining 2OG (FIH; inhibitor 300 μM, incubation 4 h): 193.3
Structure (SMILES): O=C(O)CNC(=O)c1ncc(-c2cc(-c3cccc(Cl)c3)no2)cc1O [ZG-2291, reference compound]
Effect of irradiation on EGLN3 expression [1]: not affected by irradiation | Upregulation of EGLN3 mRNA level ([1]; 20 μM, absence of irradiation): ~2.2 fold | EGLN3 mRNA levels versus DMSO ([1]; after 16 h treatment): no significant difference compared to the negative control
